Measured values from patent US10112937B2, “P2X7 modulators and methods of use” (Janssen Pharmaceutica NV, priority 2013, dated 2018).

These compounds were tested against human P2X7 (Homo sapiens (Human), UniProt Q99572) (assay: P2X7 antagonism in human PBMCs (IL-1β release after LPS + Bz-ATP, ELISA)). Settings: human PBMCs, test compound 1 μM.
Format: cell-based

human P2X7, sequence (Q99572 whole entry): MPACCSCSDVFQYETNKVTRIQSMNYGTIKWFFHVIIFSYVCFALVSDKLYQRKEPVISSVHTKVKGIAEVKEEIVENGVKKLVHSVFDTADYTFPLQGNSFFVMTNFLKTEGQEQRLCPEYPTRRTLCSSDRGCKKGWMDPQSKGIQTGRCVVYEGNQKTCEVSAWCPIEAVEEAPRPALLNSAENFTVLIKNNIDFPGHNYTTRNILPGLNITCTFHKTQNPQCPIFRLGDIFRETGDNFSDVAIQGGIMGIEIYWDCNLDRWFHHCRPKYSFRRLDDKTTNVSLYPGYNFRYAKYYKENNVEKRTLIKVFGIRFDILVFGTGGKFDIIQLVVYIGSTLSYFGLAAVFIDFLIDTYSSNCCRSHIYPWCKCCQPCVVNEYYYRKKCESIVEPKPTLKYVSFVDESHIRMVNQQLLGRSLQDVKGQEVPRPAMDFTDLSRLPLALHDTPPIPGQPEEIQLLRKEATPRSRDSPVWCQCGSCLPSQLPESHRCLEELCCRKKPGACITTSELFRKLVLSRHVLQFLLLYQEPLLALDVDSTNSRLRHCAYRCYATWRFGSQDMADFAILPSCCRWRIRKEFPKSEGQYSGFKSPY

Point of comparison: `O=C(c1cccc(C(F)(F)F)c1Cl)N1C=Cc2c(nnn2-c2cnccn2)C1` [Example 89, 5-{[2-Chloro-3-(trifluoromethyl)phenyl]carbonyl}-1-pyrazin-2-yl-4,5-dihydro-1H-[1,2,3]triazolo[4,5-c]pyridine], “PBMC 1 μM (% control)” value −1.5 % control. Against it:
- Cn1nc2c(c1-c1ccncc1)CCN(C(=O)c1cccc(Cl)c1Cl)C2 [Example 328, (2,3-dichlorophenyl)(2-methyl-3-(pyridin-4-yl)-4,5-dihydro-2H-pyrazolo[3,4-c]pyridin-6(7H)-yl)methanone] — higher, 88.0 % control

Same assay, conditions: human PBMCs, test compound 10 μM

Point of comparison: `Cc1ccnc(-n2nnc3c2CCN(C(=O)c2cccc(C(F)(F)F)c2Cl)C3C)n1` (centres unmarked) [Example 252, (2-Chloro-3-(trifluoromethyl)phenyl)(4-methyl-1-(4-methylpyrimidin-2-yl)-6,7-dihydro-1H-[1,2,3]triazolo[4,5-c]pyridin-5(4H)-yl)methanone], “PBMC 10 μM (% control)” value −0.8 % control. Against it:
- CCc1nc2c(n1-c1ccccc1)CCN(C(=O)c1cccc(Cl)c1Cl)C2 [Example 332, (2,3-dichlorophenyl)(2-ethyl-1-phenyl-6,7-dihydro-1H-imidazo[4,5-c]pyridin-5(4H)-yl)methanone] — lower, −9.5 % control
- Cc1nc2c(n1-c1ccccc1)CCN(C(=O)c1cccc(C(F)(F)F)c1Cl)C2 [Example 37, (2-Chloro-3-(trifluoromethyl)phenyl)(2-methyl-1-phenyl-6,7-dihydro-1H-imidazo[4,5-c]pyridin-5(4H)-yl)methanone] — lower, −9.1 % control
- CC1c2nnn(-c3ccc(F)cc3)c2C=CN1C(=O)c1cccc(C(F)(F)F)c1Cl (centres unmarked) [Example 81, 5-{[2-Chloro-3-(trifluoromethyl)phenyl]carbonyl}-1-(4-fluorophenyl)-4-methyl-4,5-dihydro-1H-[1,2,3]triazolo[4,5-c]pyridine] — higher, 5.9 % control
- CC1Cc2c(nnn2-c2ncc(F)cn2)CN1C(=O)c1cccc(C(F)(F)F)c1Cl (centres unmarked) [Example 200, 5-{[2-Chloro-3-(trifluoromethyl)phenyl]carbonyl}-1-(5-fluoropyrimidin-2-yl)-6-methyl-4,5,6,7-tetrahydro-1H-[1,2,3]triazolo[4,5-c]pyridine] — higher, 3.2 % control
- Cc1cc(C)nc(-n2nnc3c2CCN(C(=O)c2cccc(C(F)(F)F)c2Cl)C3C)n1 (centres unmarked) [Example 253, (2-Chloro-3-(trifluoromethyl)phenyl)(1-(4,6-dimethylpyrimidin-2-yl)-4-methyl-6,7-dihydro-1H-[1,2,3]triazolo[4,5-c]pyridin-5(4H)-yl)methanone] — lower, −2.6 % control
- O=C(c1ccc(F)c(Cl)c1Cl)N1CCc2c(nnn2-c2ccccn2)C1 [Example 130, (2,3-Dichloro-4-fluorophenyl)(1-(pyridin-2-yl)-6,7-dihydro-1H-[1,2,3]triazolo[4,5-c]pyridin-5(4H)-yl)methanone] — higher, 3.7 % control
- O=C(c1cccc(Cl)c1Cl)N1CCc2c(-c3ccncc3)n[nH]c2C1 [Example 115, 6-[(2,3-Dichlorophenyl)carbonyl]-3-pyridin-4-yl-4,5,6,7-tetrahydro-2H-pyrazolo[3,4-c]pyridine] — lower, −3.3 % control
- Cc1cncc(-n2nnc3c2CCN(C(=O)c2cccc(Cl)c2Cl)C3C)n1 (centres unmarked) [Example 180, (2,3-dichlorophenyl)(4-methyl-1-(6-methylpyrazin-2-yl)-6,7-dihydro-1H-[1,2,3]triazolo[4,5-c]pyridin-5(4H)-yl)methanone] — lower, −3.7 % control
- C[C@@H]1c2ncn(-c3ccc(F)cc3)c2CCN1C(=O)c1cccc(C(F)(F)F)c1Cl (single isomer, unassigned) [Example 46, (4R*)-5-{[2-Chloro-3-(trifluoromethyl)phenyl]carbonyl}-1-(4-fluorophenyl)-4-methyl-4,5,6,7-tetrahydro-1H-imidazo[4,5-c]pyridine] — higher, 2.1 % control

Same assay, conditions: test compound 10 μM, LPS 30 ng/ml + 0.5 mM Bz-ATP

Point of comparison: `C[C@@H]1c2ncn(-c3ccc(F)cc3)c2CCN1C(=O)c1cccc(C(F)(F)F)c1Cl` (single isomer, unassigned) [Example 46, (4R*)-5-{[2-Chloro-3-(trifluoromethyl)phenyl]carbonyl}-1-(4-fluorophenyl)-4-methyl-4,5,6,7-tetrahydro-1H-imidazo[4,5-c]pyridine], “PBMC 10 μM (% control)” value 2.1 % control. Against it:
- Cc1cc(C)nc(-n2nnc3c2CCN(C(=O)c2cccc(C(F)(F)F)c2Cl)C3C)n1 (centres unmarked) [Example 253, (2-Chloro-3-(trifluoromethyl)phenyl)(1-(4,6-dimethylpyrimidin-2-yl)-4-methyl-6,7-dihydro-1H-[1,2,3]triazolo[4,5-c]pyridin-5(4H)-yl)methanone] — lower, −2.6 % control
